Columns and labels:
Experiment in all cases: Kinase selectivity, scanMAX Kinase assay panel (DiscoverX), % control at 1 uM
Format in all cases: binding
[1] = biological target: T1, scanMAX Kinase assay panel (Homo sapiens, UniProt O75116); conditions: ROCK2; 1 uM; read-out: Percent Control (%)
T1 construct: purchased DiscoverX
Method in brief: (§1)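 Read-out is percent of control, derived from the signal with compound relative to positive and negative controls: (compound − positive)/(negative − positive) × 100. Each enzyme received test drug at 1 uM in DMSO, and values under 35% count as active.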

[2] = biological target: T2, scanMAX Kinase assay panel (Homo sapiens, UniProt P15056, V600E); conditions: BRAF (V600E); 1 uM; read-out: Percent Control (%)
T2 construct: purchased DiscoverX
T2 sequence (P15056 whole entry V600E): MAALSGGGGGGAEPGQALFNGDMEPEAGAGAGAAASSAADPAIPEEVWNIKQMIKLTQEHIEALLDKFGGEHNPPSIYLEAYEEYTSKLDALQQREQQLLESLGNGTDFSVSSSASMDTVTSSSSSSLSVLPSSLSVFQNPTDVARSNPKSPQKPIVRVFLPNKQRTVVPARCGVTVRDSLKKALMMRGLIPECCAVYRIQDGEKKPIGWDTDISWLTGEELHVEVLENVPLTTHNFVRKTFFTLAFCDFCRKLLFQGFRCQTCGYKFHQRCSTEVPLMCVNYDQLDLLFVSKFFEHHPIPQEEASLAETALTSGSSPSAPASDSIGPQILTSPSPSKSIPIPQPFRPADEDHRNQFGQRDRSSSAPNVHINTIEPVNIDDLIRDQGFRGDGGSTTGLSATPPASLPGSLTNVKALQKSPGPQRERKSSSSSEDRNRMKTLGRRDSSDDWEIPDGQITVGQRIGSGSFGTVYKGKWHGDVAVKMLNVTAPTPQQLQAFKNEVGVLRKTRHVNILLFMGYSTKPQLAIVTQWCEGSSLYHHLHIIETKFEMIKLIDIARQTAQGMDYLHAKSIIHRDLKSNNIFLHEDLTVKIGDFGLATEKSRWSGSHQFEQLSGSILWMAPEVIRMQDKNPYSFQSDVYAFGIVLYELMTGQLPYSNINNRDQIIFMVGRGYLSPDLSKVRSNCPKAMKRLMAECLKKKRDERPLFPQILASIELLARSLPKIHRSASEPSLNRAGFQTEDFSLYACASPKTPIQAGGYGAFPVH
Method in brief: as §1

[3] = biological target: T3, scanMAX Kinase assay panel (Homo sapiens, UniProt P28482); conditions: ERK2; 1 uM; read-out: Percent Control (%)
T3 construct: purchased DiscoverX
T3 sequence (P28482 whole entry): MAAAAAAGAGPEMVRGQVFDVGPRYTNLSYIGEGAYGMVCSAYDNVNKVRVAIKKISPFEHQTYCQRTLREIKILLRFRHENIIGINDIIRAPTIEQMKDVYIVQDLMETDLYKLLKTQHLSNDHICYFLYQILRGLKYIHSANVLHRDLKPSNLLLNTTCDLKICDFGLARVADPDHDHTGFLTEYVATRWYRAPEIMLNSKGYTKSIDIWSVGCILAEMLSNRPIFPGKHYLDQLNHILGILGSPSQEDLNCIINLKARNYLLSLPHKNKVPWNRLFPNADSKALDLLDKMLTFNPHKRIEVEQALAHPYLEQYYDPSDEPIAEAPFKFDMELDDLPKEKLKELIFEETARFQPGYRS
Method in brief: as §1

[4] = biological target: T4, scanMAX Kinase assay panel (Homo sapiens, UniProt Q14004); conditions: CDC2L5; 1 uM; read-out: Percent Control (%)
T4 construct: purchased DiscoverX
T4 sequence (Q14004 whole entry): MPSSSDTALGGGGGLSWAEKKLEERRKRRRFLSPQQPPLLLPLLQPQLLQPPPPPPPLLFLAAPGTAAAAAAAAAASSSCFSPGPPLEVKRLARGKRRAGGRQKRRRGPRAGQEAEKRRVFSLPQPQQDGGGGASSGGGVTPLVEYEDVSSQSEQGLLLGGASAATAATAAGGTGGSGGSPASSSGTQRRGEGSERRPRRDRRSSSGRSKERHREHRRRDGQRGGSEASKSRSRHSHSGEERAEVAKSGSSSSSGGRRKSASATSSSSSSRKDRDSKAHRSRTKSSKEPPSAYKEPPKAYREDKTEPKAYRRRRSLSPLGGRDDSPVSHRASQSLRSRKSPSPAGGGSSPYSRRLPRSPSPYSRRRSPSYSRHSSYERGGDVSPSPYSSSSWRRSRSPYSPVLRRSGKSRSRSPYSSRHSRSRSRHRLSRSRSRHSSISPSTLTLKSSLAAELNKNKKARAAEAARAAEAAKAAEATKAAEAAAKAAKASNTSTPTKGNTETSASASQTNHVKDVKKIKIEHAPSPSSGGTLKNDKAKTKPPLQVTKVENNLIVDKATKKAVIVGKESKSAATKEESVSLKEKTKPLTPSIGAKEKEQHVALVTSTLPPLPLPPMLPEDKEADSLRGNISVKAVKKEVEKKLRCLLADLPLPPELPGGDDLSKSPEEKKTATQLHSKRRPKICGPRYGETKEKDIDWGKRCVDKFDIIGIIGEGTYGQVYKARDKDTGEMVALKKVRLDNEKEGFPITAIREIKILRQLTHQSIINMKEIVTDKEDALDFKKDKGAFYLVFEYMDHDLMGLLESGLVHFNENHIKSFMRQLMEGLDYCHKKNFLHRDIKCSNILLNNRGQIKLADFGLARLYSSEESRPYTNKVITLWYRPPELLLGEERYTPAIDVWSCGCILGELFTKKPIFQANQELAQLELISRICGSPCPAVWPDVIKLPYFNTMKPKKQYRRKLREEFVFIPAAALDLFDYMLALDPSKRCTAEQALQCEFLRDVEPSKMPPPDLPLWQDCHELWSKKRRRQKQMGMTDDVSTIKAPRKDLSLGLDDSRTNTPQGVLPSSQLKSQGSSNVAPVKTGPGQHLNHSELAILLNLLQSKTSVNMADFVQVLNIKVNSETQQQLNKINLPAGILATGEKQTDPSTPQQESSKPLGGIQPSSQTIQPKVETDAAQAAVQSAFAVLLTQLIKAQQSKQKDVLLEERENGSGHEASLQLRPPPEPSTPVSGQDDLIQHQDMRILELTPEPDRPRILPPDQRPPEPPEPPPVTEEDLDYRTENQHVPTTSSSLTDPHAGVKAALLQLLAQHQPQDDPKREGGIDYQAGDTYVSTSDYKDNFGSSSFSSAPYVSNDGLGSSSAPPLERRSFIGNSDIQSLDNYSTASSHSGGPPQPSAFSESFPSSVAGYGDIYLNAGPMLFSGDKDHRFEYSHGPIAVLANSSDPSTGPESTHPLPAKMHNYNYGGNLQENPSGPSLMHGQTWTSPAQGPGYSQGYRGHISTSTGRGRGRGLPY
Method in brief: as §1

[5] = biological target: T5, scanMAX Kinase assay panel (Homo sapiens, UniProt Q15835); conditions: GRK1; 1 uM; read-out: Percent Control (%)
T5 construct: purchased DiscoverX
T5 sequence (Q15835 1-563): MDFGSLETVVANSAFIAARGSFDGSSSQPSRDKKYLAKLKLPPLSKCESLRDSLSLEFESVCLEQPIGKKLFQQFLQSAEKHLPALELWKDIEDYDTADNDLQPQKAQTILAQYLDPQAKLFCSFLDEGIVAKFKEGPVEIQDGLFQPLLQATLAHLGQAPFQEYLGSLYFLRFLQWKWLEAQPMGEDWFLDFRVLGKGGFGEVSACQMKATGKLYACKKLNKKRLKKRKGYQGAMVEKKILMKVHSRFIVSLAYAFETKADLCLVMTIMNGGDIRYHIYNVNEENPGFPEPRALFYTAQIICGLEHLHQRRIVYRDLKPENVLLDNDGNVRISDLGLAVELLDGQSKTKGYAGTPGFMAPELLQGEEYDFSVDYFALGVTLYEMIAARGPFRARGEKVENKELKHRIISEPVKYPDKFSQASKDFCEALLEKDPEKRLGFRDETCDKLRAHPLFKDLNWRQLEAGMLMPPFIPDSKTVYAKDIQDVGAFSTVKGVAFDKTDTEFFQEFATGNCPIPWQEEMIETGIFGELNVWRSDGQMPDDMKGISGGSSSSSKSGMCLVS
Method in brief: as §1

[6] = biological target: T6, scanMAX Kinase assay panel (Homo sapiens, UniProt Q99683); conditions: ASK1; 1 uM; read-out: Percent Control (%)
T6 construct: purchased DiscoverX
T6 sequence (Q99683 1-1374): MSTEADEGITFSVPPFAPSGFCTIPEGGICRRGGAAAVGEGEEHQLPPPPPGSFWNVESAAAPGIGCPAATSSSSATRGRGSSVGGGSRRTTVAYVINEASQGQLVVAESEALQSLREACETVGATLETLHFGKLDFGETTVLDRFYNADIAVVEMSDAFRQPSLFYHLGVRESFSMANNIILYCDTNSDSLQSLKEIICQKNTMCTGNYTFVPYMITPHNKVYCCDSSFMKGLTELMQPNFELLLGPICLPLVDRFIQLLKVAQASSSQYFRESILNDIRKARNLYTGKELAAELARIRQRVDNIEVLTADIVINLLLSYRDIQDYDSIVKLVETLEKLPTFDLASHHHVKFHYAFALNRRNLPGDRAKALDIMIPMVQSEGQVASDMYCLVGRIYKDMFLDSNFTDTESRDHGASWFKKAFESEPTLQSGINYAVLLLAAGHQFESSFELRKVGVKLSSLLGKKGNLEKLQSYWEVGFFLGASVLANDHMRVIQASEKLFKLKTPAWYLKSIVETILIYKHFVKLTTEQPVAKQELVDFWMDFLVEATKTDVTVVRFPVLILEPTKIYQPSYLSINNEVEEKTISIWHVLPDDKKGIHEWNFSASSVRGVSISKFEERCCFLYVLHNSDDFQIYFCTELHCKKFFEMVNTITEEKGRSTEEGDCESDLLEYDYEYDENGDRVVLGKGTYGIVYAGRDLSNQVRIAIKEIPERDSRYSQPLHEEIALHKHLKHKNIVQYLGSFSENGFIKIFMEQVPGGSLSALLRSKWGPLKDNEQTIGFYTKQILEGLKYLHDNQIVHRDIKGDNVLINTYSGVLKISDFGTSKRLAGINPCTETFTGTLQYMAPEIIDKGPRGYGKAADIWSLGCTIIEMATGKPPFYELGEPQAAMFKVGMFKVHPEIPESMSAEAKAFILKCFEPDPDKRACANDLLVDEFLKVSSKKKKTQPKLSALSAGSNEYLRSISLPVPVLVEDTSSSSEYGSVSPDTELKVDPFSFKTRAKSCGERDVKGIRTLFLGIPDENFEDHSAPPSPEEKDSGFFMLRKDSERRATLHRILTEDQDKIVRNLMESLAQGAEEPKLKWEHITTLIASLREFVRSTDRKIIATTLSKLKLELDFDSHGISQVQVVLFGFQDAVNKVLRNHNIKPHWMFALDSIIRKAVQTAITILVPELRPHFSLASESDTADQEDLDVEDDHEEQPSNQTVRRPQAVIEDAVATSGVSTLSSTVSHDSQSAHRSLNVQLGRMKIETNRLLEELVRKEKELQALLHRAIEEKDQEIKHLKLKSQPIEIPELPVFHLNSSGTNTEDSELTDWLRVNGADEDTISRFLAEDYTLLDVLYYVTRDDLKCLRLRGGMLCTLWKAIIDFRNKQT
Method in brief: as §1

T1 sequence (O75116 whole entry): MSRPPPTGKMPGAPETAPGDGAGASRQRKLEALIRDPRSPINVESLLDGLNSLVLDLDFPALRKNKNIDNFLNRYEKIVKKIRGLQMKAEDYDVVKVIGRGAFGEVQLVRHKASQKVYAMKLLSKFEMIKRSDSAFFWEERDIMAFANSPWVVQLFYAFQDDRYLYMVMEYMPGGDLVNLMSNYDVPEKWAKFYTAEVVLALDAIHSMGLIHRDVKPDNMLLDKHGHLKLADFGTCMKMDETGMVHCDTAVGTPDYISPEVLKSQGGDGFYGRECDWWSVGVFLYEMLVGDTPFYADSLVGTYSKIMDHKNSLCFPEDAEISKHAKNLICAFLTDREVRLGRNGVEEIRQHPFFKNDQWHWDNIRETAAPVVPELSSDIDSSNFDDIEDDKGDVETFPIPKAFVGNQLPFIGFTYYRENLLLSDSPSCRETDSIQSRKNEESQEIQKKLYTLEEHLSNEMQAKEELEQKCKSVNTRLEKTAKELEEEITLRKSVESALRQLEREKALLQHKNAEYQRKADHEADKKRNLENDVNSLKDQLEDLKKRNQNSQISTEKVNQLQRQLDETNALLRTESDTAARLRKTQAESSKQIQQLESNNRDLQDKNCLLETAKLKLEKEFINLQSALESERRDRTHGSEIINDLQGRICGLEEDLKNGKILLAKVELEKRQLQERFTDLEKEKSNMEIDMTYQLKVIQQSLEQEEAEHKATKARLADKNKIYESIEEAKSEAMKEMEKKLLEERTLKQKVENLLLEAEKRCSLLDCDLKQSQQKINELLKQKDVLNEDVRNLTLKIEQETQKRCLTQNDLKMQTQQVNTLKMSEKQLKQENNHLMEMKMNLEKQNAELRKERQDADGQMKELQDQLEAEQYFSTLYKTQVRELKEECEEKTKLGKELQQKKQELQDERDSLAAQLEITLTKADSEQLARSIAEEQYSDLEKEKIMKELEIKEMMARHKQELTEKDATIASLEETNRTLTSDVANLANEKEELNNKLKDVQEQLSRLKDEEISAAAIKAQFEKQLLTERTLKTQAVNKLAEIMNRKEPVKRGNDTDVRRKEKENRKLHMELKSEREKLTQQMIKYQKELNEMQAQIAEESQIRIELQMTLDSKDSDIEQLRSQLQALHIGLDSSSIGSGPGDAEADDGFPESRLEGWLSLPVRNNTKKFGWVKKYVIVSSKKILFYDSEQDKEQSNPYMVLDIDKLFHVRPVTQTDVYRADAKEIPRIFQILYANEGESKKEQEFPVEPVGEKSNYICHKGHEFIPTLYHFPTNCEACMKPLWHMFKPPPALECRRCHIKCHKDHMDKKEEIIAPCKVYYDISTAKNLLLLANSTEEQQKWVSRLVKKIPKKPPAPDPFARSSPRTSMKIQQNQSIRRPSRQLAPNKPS

`Cc1ccc(C(=O)Nc2ccc(CN3CCN(C)CC3)c(C(F)(F)F)c2)cc1C#Cc1cnc2c(Nc3cnn(C)c3)cccn12` [Example 1, 4-methyl-3-((8-((1-methyl-1H-pyrazol-4-yl)amino)imidazo[1,2-a]pyridin-3-yl)ethynyl)-N-(4-((4-methylpiperazin-1-yl)methyl)-3-(trifluoromethyl)phenyl)benzamide] showed a remaining binding at 1 µM [1] of 15%, a remaining binding at 1 µM [2] of 5% and a remaining binding at 1 µM [3] of 100%. For the same compound, the remaining binding at 1 µM [4] was 5%, the remaining binding at 1 µM [5] was 65% and the remaining binding at 1 µM [6] was 100%.

Compound `Cc1cn(-c2cc(NC(=O)c3ccc(C)c(C#Cc4cnc5c(Nc6cnn(C)c6)cccn45)c3)cc(C(F)(F)F)c2)cn1` [Example 12, 4-methyl-N-(3-(4-methyl-1H-imidazol-1-yl)-5-(trifluoromethyl)phenyl)-3-((8-((1-methyl-1H-pyrazol-4-yl)amino)imidazo[1,2-a]pyridin-3-yl)ethynyl)benzamide] has a remaining binding at 1 µM [1] of 100%, a remaining binding at 1 µM [2] of 56% and a remaining binding at 1 µM [3] of 92%. The remaining binding at 1 µM [4] was 27%, the remaining binding at 1 µM [5] was 85% and the remaining binding at 1 µM [6] was 95%.

`Cc1ccc(NC(=O)C2(C(=O)Nc3ccc(F)cc3)CC2)cc1C#Cc1cnc2c(Nc3cnn(C(C)C)c3)cccn12` [Example 78] showed a remaining binding at 1 µM [1] of 100%, a remaining binding at 1 µM [2] of 100% and a remaining binding at 1 µM [3] of 100%. It also gave a remaining binding at 1 µM [4] of 100%, a remaining binding at 1 µM [5] of 99% and a remaining binding at 1 µM [6] of 100%.
